Entries after “also recorded” stand apart in the source; their conditions may differ.
Columns and labels:
M1 (Cortex) = molecular target: T1, M1 (Cortex) (Rattus norvegicus, UniProt P08482); assay: Receptor binding test in vitro, M1 (cerebral cortex), [3H]pirenzepine; design: species or system rat (male Wistar); conditions: 1 nM [3H]pirenzepine, 90 min, ambient temperature, pH 7.5
T1 construct: The cerebral cortex, heart and salivary glands were removed, washed and homogenised; from tissue; host or cells: cerebral cortex of male Wistar rats (Chbb: THOM)
T1 sequence (P08482 1-460): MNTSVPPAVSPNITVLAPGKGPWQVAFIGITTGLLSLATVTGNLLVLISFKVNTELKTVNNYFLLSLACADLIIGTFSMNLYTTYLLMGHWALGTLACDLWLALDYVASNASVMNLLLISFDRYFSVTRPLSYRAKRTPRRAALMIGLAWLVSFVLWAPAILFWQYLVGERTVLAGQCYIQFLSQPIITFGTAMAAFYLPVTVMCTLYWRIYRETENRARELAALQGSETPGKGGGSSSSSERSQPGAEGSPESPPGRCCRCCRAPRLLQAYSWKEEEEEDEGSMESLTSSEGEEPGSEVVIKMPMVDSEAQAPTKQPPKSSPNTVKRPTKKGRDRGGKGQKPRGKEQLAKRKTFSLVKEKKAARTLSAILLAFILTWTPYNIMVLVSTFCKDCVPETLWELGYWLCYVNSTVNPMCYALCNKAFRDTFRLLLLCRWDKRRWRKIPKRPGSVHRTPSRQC

M2 (Heart) = molecular target: T2, M2 (Heart) (Rattus norvegicus, UniProt P10980); assay: Receptor binding test in vitro, M2 (heart), [3H]NMS; design: species or system rat (male Wistar); conditions: 0.3 nM [3H]NMS, 40 min, ambient temperature, pH 7.5
T2 construct: The cerebral cortex, heart and salivary glands were removed, washed and homogenised; from tissue; host or cells: heart of male Wistar rats (Chbb: THOM)
T2 sequence (P10980 1-466): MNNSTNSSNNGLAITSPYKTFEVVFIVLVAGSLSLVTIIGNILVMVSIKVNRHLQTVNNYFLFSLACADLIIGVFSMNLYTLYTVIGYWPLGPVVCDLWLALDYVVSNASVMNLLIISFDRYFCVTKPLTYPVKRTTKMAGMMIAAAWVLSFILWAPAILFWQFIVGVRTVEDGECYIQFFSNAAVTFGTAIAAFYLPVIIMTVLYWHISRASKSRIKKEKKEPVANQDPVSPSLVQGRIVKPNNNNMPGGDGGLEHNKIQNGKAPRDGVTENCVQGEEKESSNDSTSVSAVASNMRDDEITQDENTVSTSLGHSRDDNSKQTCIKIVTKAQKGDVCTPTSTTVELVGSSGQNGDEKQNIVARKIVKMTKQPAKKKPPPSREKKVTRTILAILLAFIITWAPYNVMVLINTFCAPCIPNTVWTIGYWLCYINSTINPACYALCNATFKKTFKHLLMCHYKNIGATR

M3 (Submandibular gland) = molecular target: T3, M3 (Submandibular gland) (Rattus norvegicus, UniProt P08483); assay: Receptor binding test in vitro, M3 (submandibular/salivary gland), [3H]NMS; design: species or system rat (male Wistar); conditions: 0.3 nM [3H]NMS, 40 min, ambient temperature, pH 7.5
T3 construct: The cerebral cortex, heart and salivary glands were removed, washed and homogenised; from tissue; host or cells: salivary (submandibular) glands of male Wistar rats (Chbb: THOM)

[1] = test system: arecoline-induced increase in blood pressure; assay: Investigation for central activity: arecoline test, CNS-penetration in vivo; design: species or system rat; conditions: for ED50: Rattus norvegicus, iv, read-out: ED50, reduction in the arecoline-induced increase in blood pressure
Procedure: Principle: Arecoline has both a central and a peripherally active component. […] Cerebroavailable antimuscarinics block this central effect. Method: Male rats weighing 300 g are anaesthetised i.p. with urethane (1.2 g/kg). The trachea is […], the animals are respirated with an air/oxygen mixture (80 breaths per minute). The blood pressure is recorded after canulation of the carotid artery by means of a pressure recorder (Bell and Howell Type 4-327-I). The test substances are administered through the jugular vein ([…]). […] The arecoline is administered (in doses of 0.3 mg/kg) at 15 minute intervals. After 2 comparison values, the test substance is injected in increasing doses 5 minutes before the next administration of arecoline. The results obtained were compared with the average starting values and determined as the percentage inhibition.

[2] = test system: 24 months old learning-impaired rats; assay: Effect on the memory in the Morris water maze (aged rats); format: in vivo, rat; conditions: 24 months old rats, 0.2 mg/kg s.c., 4 days, FIG. 1, vs physiological saline
Procedure: The tests were carried out using the water maze described by R. G. M. Morris in Learn Motive 12: 239-249 (1981) using the test method described therein.
On the first day, rats which were 24 months old and therefore learning-impaired (n=7 per group) were given 0.2 mg/kg of compound D by subcutaneous route whilst another group of these animals were given physiological saline solution (s.c.).

[3] = literature: Hunter and Roberts 1988; Hunter et al. 1986; Sutherland et al. 1982; Wishaw 1985; cited from earlier work

T3 sequence (P08483 whole entry): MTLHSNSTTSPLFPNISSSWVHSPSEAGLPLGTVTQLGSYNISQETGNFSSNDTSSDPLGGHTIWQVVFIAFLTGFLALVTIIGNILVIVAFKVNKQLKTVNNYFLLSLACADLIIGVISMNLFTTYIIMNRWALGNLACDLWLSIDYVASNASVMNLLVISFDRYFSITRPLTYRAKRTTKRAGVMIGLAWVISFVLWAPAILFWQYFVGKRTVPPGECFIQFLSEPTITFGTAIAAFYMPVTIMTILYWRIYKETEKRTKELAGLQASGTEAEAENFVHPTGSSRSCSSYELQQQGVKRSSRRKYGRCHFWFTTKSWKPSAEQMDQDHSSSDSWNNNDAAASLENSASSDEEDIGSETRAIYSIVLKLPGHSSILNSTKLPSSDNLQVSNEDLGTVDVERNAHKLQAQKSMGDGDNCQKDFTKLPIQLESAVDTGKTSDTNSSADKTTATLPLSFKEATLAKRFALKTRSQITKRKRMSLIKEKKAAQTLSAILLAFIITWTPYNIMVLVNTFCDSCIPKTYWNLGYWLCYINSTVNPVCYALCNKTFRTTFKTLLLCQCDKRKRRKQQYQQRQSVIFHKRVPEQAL

Compound	Ki (M1 (Cortex)) [nM]	Ki (M2 (Heart)) [nM]	Ki (M3 (Submandibular gland)) [nM]	ED50 [1] [mg/kg]	Memory performance in the Morris water maze (in words) [2]	Learning ability and memory performance (in words) [3]	Effect on arecoline-mediated central effects / increase in blood pressure (in words) ([1]; rat, i.v.)
CCCC(C)(C)C(=O)N(CC)CCCC1CCN(CC(=O)N2c3ccc(Cl)cc3C(=O)Nc3cccnc32)CC1 [Substance D, 5,11-dihydro-8-chloro-11-[[4-[3-[(2,2-dimethyl-1-oxopentyl)-ethylamino]propyl]-1-piperidinyl]-acetyl]-6H-pyrido[2,3-b][1,4]benzodiazepin-6-one]	866	25	916	5	improved memory performance; also recorded: reached the same level as the control groups of young rats		
O=C1Nc2cccnc2N(C(=O)CCC#CCN2CCCCC2)c2ccccc21 [J]	794	120	1820				
CCN(CCCC1CCN(CC(=O)N2c3ccccc3C(=O)Nc3cccnc32)CC1)C(=O)C(C)(C)CC [Substance A, 5,11-dihydro-11-[[4-[3-[(2,2-dimethyl-1-oxobutyl]-ethylamino]-propyl]-1-piperidinyl]acetyl]-6H-pyrido[2,3-b][1,4]benzodiazepin-6-one]	500	25	750	4.5			
CCCC(C)(C)C(=O)N(CC)CCCCC1CCN(CC(=O)N2c3ccccc3C(=O)Nc3cccnc32)CC1 [Substance C, 5,11-dihydro-11-[[4-[4-[(2,2-dimethyl-1-oxopentyl)-ethylamino]butyl]-1-piperidinyl]acetyl]-6H -pyrido [2,3-b][1,4]benzodiazepin-6-one]	500	38	875	2			
CCN(CCCC1CCN(CC(=O)N2c3ccccc3C(=O)Nc3cccnc32)CC1)C(=O)C(C)(C)C [Substance F, 5,11-Dihydro-11-[[4-[3-[(2,2-dimethyl-1-oxopropyl)ethylamino]propyl]-1-piperidinyl]acetyl]-6H-pyrido[2,3-b][1,4]benzodiazepin-6-one]	900	65	1500	6.5			
Cc1scc2c1N(C(=O)CN1CCC(CCCN3CCCCC3)CC1)c1ccccc1NC2=O [N]	7.9	2	6				
CCN(CCCC1CCN(CC(=O)N2c3ccc(C)cc3C(=O)Nc3cccnc32)CC1)C(=O)C(C)(C)CC [Substance G, 5,11-dihydro-8-methyl-11-[[4-[3-[(2,2-dimethyl-1oxobutyl)ethylamino]propyl]-1-piperidinyl]acetyl]-6H-pyrido[2,3-b][1,4]benzodiazepin-6-one]	600	25	750	5.1			
O=C1Nc2cccnc2N(C(=O)CCCCCN2CCCCC2)c2ccccc21 [Substance O, 5,11-dihydro-11-[1-oxo-6-(1-piperidinyl)-1-hexyl]-6H-pyrido[2,3-b][1,4]benzodiazepin-10-one, reference compound]	10	5	40				
CN1CCN(CC(=O)N2c3ccccc3C(=O)Nc3cccnc32)CC1 [pirenzepine]						a deterioration in learning ability and memory performance was observed	
O=C1Nc2cccnc2N(C(=O)N2CCCC(CCCN3CCCCC3)C2)c2ccccc21 (stereo not shown) [M]	13	2	13				
CCN(CC)CC1CCCCN1CC(=O)N1c2ccccc2C(=O)Nc2cccnc21 (stereo not shown) [H]			2000				
CCCC(C)(C)C(=O)N(CC)CCCC1CCN(CC(=O)N2c3ccccc3C(=O)Nc3cccnc32)CC1 [Substance B]	150	15	300	1.3			
CCN(CCCC1CCN(CC(=O)N2c3ccc(C)cc3C(=O)Nc3cccnc32)CC1)C(=O)C(C)(C)C [Substance E, 5,11-dihydro-8-methyl-11-[[4-[3-[(2,2-dimethyl-1-oxopropyl)-ethylamino]propyl]-1-piperidinyl]acetyl]-6H-pyrido[2,3-b][1,4]benzodiazepin-6-one]	1000	100	1500	2.8			
Cc1scc2c1N(C(=O)CCC#CCN1CCCCCC1)c1ccccc1NC2=O [P]	35	7.6	30				
CN(CCC1CCCCCN1C)CC(=O)N1c2ccccc2C(=O)Nc2cccnc21 (stereo not shown) [S]	16	3	25				
CCCN(CCC)CC1CCCCN1CCNC(=O)N1c2ccccc2C(=O)Nc2cccnc21 (stereo not shown) [L]	30	7.9		> 10			no effect on the increase in blood pressure caused by arecoline
CCN(CC)CCCCC1CCN(CC(=O)N2c3ccccc3C(=O)Nc3cccnc32)CC1 [I]	20		151				
CCN(CC)CC1COCCN1CCCC(=O)N1c2ccccc2C(=O)Nc2cccnc21 (stereo not shown) [Q]	50	20	50				
CN(CCC1CCCN1C)CC(=O)N1c2ccccc2C(=O)Nc2cccnc21 (stereo not shown) [R]	7.1	3	30				

Reference: patent US5610155A, “Condensed diazepinones, processes for preparing them and agents containing these compounds for treating diseases of the central nervous system and for promoting cerebral blood circulation” (Dr. Karl Thomae GmbH, priority 1995, dated 1997)
